Results reported in the supplement of paper PMC10307832.

Legend:
Assay in all cases: relative viability (nuclei count vs DMSO), 5 days (fraction); higher = more cells survive
NCI-H520 = test system: NCI-H520
How it was run: (§1)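 Lung cancer cell lines in 1536-well plates were dosed by pin tool the day after seeding, either with one drug alone or with a fixed anchor-drug dose plus five library-drug doses (not always all listed) in √10 steps. After 5 days, cells were fixed and their nuclei stained in one step (final 0.05% Triton X-100, 1% formaldehyde, 1 ug/ml Hoechst), then counted on 4× images. Relative viability is the nuclei count in treated wells divided by that in vehicle wells. Values are medians of duplicate plates.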

NCI-H650 = test system: NCI-H650
How it was run: as §1

EKVX = test system: EKVX
How it was run: as §1

NCI-H1650 = test system: NCI-H1650
How it was run: as §1

NCI-H460 = test system: NCI-H460
How it was run: as §1

NCI-H441 = test system: NCI-H441
How it was run: as §1

LK-2 = test system: LK-2
How it was run: as §1

NCI-H2347 = test system: NCI-H2347
How it was run: as §1

NCI-H1666 = test system: NCI-H1666
How it was run: as §1

NCI-H838 = test system: NCI-H838
How it was run: as §1

H3255 = test system: H3255
How it was run: as §1

ChaGo-K-1 = test system: ChaGo-K-1
How it was run: as §1

NCI-H3122 = test system: NCI-H3122
How it was run: as §1

SW 1573 = test system: SW 1573
How it was run: as §1

A-427 = test system: A-427
How it was run: as §1

NCI-H1944 = test system: NCI-H1944
How it was run: as §1

NCI-H2228 = test system: NCI-H2228
How it was run: as §1

NCI-H1755 = test system: NCI-H1755
How it was run: as §1

NCI-H1355 = test system: NCI-H1355
How it was run: as §1

NCI-H2085 = test system: NCI-H2085
How it was run: as §1

NCI-H322M = test system: NCI-H322M
How it was run: as §1

NCI-H596 = test system: NCI-H596
How it was run: as §1

NCI-H358 = test system: NCI-H358
How it was run: as §1

Q: For `O=C(O)CCCCC(CCSCc1ccccc1)SCc1ccccc1` (stereo not drawn) [CPI-613] + COc1cccc2cc(-c3nc([C@H]4CC[C@H](C(=O)O)CC4)n4ncnc(N)c34)[nH]c12 [OSI-027] (partner 0.5 µM), which relative viability (NCI-H520; first compound 5 µM) is on record?
A: 0.268

Q: What about the relative viability (NCI-H520; first compound 15.81 µM) of the same compound?
A: 0.243

Q: What about the relative viability (NCI-H520; first compound 50 µM) of the same compound?
A: 0.208

Q: What about the relative viability (NCI-H520; first compound 158.11 µM) of the same compound?
A: 0.179

Q: And the relative viability (NCI-H520; first compound 500 µM)?
A: 0.141

Q: What about the relative viability (NCI-H650; first compound 5 µM) of the same compound?
A: 0.445

Q: What about the relative viability (NCI-H650; first compound 15.81 µM) of the same compound?
A: 0.415

Q: What about the relative viability (NCI-H650; first compound 50 µM) of the same compound?
A: 0.466

Q: And the relative viability (NCI-H650; first compound 158.11 µM)?
A: 0.346

Q: And the relative viability (NCI-H650; first compound 500 µM)?
A: 0.373

Q: And the relative viability (EKVX; first compound 5 µM)?
A: 0.631

Q: And the relative viability (EKVX; first compound 15.81 µM)?
A: 0.624

Q: What about the relative viability (EKVX; first compound 50 µM) of the same compound?
A: 0.718

Q: What about the relative viability (EKVX; first compound 158.11 µM) of the same compound?
A: 0.673

Q: And the relative viability (EKVX; first compound 500 µM)?
A: 0.693

Q: And the relative viability (NCI-H1650; first compound 5 µM)?
A: 0.592

Q: And the relative viability (NCI-H1650; first compound 15.81 µM)?
A: 0.566

Q: What about the relative viability (NCI-H1650; first compound 50 µM) of the same compound?
A: 0.58

Q: What about the relative viability (NCI-H1650; first compound 158.11 µM) of the same compound?
A: 0.14

Q: What about the relative viability (NCI-H1650; first compound 500 µM) of the same compound?
A: 0.0159

Q: And the relative viability (NCI-H460; first compound 5 µM)?
A: 0.636

Q: And the relative viability (NCI-H460; first compound 15.81 µM)?
A: 0.422

Q: And the relative viability (NCI-H460; first compound 50 µM)?
A: 0.535

Q: And the relative viability (NCI-H460; first compound 158.11 µM)?
A: 0.173

Q: What about the relative viability (NCI-H460; first compound 500 µM) of the same compound?
A: 0.0125

Q: What about the relative viability (NCI-H441; first compound 5 µM) of the same compound?
A: 0.615

Q: And the relative viability (NCI-H441; first compound 15.81 µM)?
A: 0.596

Q: What about the relative viability (NCI-H441; first compound 50 µM) of the same compound?
A: 0.586

Q: And the relative viability (NCI-H441; first compound 158.11 µM)?
A: 0.255

Q: And the relative viability (NCI-H441; first compound 500 µM)?
A: 0.0397

Q: And the relative viability (LK-2; first compound 5 µM)?
A: 0.189

Q: What about the relative viability (LK-2; first compound 15.81 µM) of the same compound?
A: 0.19

Q: What about the relative viability (LK-2; first compound 50 µM) of the same compound?
A: 0.18

Q: What about the relative viability (LK-2; first compound 158.11 µM) of the same compound?
A: 0.161

Q: And the relative viability (LK-2; first compound 500 µM)?
A: 0.128

Q: And the relative viability (NCI-H2347; first compound 5 µM)?
A: 0.325

Q: And the relative viability (NCI-H2347; first compound 15.81 µM)?
A: 0.407

Q: What about the relative viability (NCI-H2347; first compound 50 µM) of the same compound?
A: 0.336

Q: And the relative viability (NCI-H2347; first compound 158.11 µM)?
A: 0.373

Q: What about the relative viability (NCI-H2347; first compound 500 µM) of the same compound?
A: 0.456

Q: And the relative viability (NCI-H1666; first compound 5 µM)?
A: 0.866

Q: And the relative viability (NCI-H1666; first compound 15.81 µM)?
A: 0.856

Q: What about the relative viability (NCI-H1666; first compound 50 µM) of the same compound?
A: 0.798

Q: What about the relative viability (NCI-H1666; first compound 158.11 µM) of the same compound?
A: 0.281

Q: And the relative viability (NCI-H1666; first compound 500 µM)?
A: 0.151

Q: What about the relative viability (NCI-H838; first compound 5 µM) of the same compound?
A: 0.354

Q: What about the relative viability (NCI-H838; first compound 15.81 µM) of the same compound?
A: 0.335

Q: What about the relative viability (NCI-H838; first compound 50 µM) of the same compound?
A: 0.301

Q: What about the relative viability (NCI-H838; first compound 158.11 µM) of the same compound?
A: 0.235

Q: What about the relative viability (NCI-H838; first compound 500 µM) of the same compound?
A: 0.0809

Q: What about the relative viability (H3255; first compound 5 µM) of the same compound?
A: 0.569

Q: What about the relative viability (H3255; first compound 15.81 µM) of the same compound?
A: 0.501

Q: What about the relative viability (H3255; first compound 50 µM) of the same compound?
A: 0.612

Q: What about the relative viability (H3255; first compound 500 µM) of the same compound?
A: 0.471

Q: And the relative viability (ChaGo-K-1; first compound 5 µM)?
A: 0.61

Q: And the relative viability (ChaGo-K-1; first compound 15.81 µM)?
A: 0.509

Q: And the relative viability (ChaGo-K-1; first compound 50 µM)?
A: 0.53

Q: What about the relative viability (ChaGo-K-1; first compound 158.11 µM) of the same compound?
A: 0.377

Q: And the relative viability (ChaGo-K-1; first compound 500 µM)?
A: 0.0966

Q: And the relative viability (NCI-H3122; first compound 5 µM)?
A: 0.9

Q: What about the relative viability (NCI-H3122; first compound 15.81 µM) of the same compound?
A: 0.876

Q: And the relative viability (NCI-H3122; first compound 50 µM)?
A: 0.7

Q: And the relative viability (NCI-H3122; first compound 158.11 µM)?
A: 0.39

Q: What about the relative viability (NCI-H3122; first compound 500 µM) of the same compound?
A: 0.045

Q: What about the relative viability (SW 1573; first compound 5 µM) of the same compound?
A: 0.592

Q: And the relative viability (SW 1573; first compound 15.81 µM)?
A: 0.444

Q: And the relative viability (SW 1573; first compound 50 µM)?
A: 0.498

Q: And the relative viability (SW 1573; first compound 158.11 µM)?
A: 0.0962

Q: And the relative viability (SW 1573; first compound 500 µM)?
A: 0.056

Q: What about the relative viability (A-427; first compound 5 µM) of the same compound?
A: 0.416

Q: And the relative viability (A-427; first compound 15.81 µM)?
A: 0.423

Q: And the relative viability (A-427; first compound 50 µM)?
A: 0.387

Q: And the relative viability (A-427; first compound 158.11 µM)?
A: 0.348

Q: And the relative viability (A-427; first compound 500 µM)?
A: 0.154

Q: And the relative viability (NCI-H1944; first compound 5 µM)?
A: 0.391

Q: And the relative viability (NCI-H1944; first compound 15.81 µM)?
A: 0.388

Q: And the relative viability (NCI-H1944; first compound 50 µM)?
A: 0.351

Q: What about the relative viability (NCI-H1944; first compound 158.11 µM) of the same compound?
A: 0.274

Q: What about the relative viability (NCI-H1944; first compound 500 µM) of the same compound?
A: 0.0492

Q: What about the relative viability (NCI-H2228; first compound 5 µM) of the same compound?
A: 0.538

Q: What about the relative viability (NCI-H2228; first compound 15.81 µM) of the same compound?
A: 0.467

Q: What about the relative viability (NCI-H2228; first compound 50 µM) of the same compound?
A: 0.525

Q: And the relative viability (NCI-H2228; first compound 158.11 µM)?
A: 0.192

Q: What about the relative viability (NCI-H2228; first compound 500 µM) of the same compound?
A: 0.072

Q: And the relative viability (NCI-H1755; first compound 5 µM)?
A: 0.693

Q: And the relative viability (NCI-H1755; first compound 15.81 µM)?
A: 0.687

Q: And the relative viability (NCI-H1755; first compound 50 µM)?
A: 0.66

Q: What about the relative viability (NCI-H1755; first compound 158.11 µM) of the same compound?
A: 0.504

Q: And the relative viability (NCI-H1755; first compound 500 µM)?
A: 0.207

Q: And the relative viability (NCI-H1355; first compound 5 µM)?
A: 0.388

Q: What about the relative viability (NCI-H1355; first compound 15.81 µM) of the same compound?
A: 0.347

Q: And the relative viability (NCI-H1355; first compound 50 µM)?
A: 0.345

Q: What about the relative viability (NCI-H1355; first compound 158.11 µM) of the same compound?
A: 0.29

Q: And the relative viability (NCI-H1355; first compound 500 µM)?
A: 0.0712

Q: And the relative viability (NCI-H2085; first compound 5 µM)?
A: 0.727

Q: What about the relative viability (NCI-H2085; first compound 15.81 µM) of the same compound?
A: 0.659

Q: What about the relative viability (NCI-H2085; first compound 50 µM) of the same compound?
A: 0.787

Q: And the relative viability (NCI-H2085; first compound 158.11 µM)?
A: 0.308

Q: What about the relative viability (NCI-H2085; first compound 500 µM) of the same compound?
A: 0.112

Q: What about the relative viability (NCI-H322M; first compound 5 µM) of the same compound?
A: 0.511

Q: And the relative viability (NCI-H322M; first compound 15.81 µM)?
A: 0.422

Q: And the relative viability (NCI-H322M; first compound 50 µM)?
A: 0.515

Q: And the relative viability (NCI-H322M; first compound 158.11 µM)?
A: 0.336

Q: What about the relative viability (NCI-H322M; first compound 500 µM) of the same compound?
A: 0.0015

Q: And the relative viability (NCI-H596; first compound 5 µM)?
A: 0.673

Q: What about the relative viability (NCI-H596; first compound 15.81 µM) of the same compound?
A: 0.623

Q: And the relative viability (NCI-H596; first compound 50 µM)?
A: 0.832

Q: What about the relative viability (NCI-H596; first compound 158.11 µM) of the same compound?
A: 0.489

Q: What about the relative viability (NCI-H596; first compound 500 µM) of the same compound?
A: 0.0755

Q: And the relative viability (NCI-H358; first compound 15.81 µM)?
A: 0.655

Q: What about the relative viability (NCI-H358; first compound 50 µM) of the same compound?
A: 0.639

Q: What about the relative viability (NCI-H358; first compound 158.11 µM) of the same compound?
A: 0.303

Q: What about the relative viability (NCI-H358; first compound 500 µM) of the same compound?
A: 0.0233
